These results are taken from US20240002437A1, “COMPOSITIONS AND METHODS OF TREATING INFLAMMATORY LUNG DISEASES” (priority 2020, published 2024).

One series concerns mouse model of VILI. Kind of series: Mouse model of VILI (high tidal volume ventilation). The conditions noted are these: 10 mg/kg intraperitoneally 3 h before ventilation; tidal volume 35 mL/kg, 4 h. It counts as in vivo. How it is done: Male C57BL/6 mice aged between 6 and 8 weeks were purchased from Jackson Laboratories (ME, USA). Mice were maintained at a room temperature of 22±1° C. in air with 40-70% humidity at least one week before experiments. Animals were randomly distributed into 4 groups (n=5 in each group): non-ventilated control mice with normal saline; non-ventilated control mice treated with the eNOS decoy peptide (d-peptide); high tidal volume with normal saline; high tidal volume with eNOS decoy peptide. Three hours before ventilation, saline or the eNOS decoy peptide (10 mg/kg body weight) were injected intraperitoneally. Before mechanical ventilation was initiated, mice were anesthetized using an intraperitoneal injection with a cocktail containing ketamine (100 mg/kg) and xylazine (5 mg/kg). The mice were then placed in a supine position on a heating pad to maintain body temperature. For the ventilation procedure, mice were orotracheally intubated with a 20 g intravenous indwelling catheter and attached to a small animal ventilator (SAR-1000, CWE Inc., USA). The ventilation parameters were set as follows: inspiration/expiration ratio, 33%; respiratory rate, 75 breaths/min; and tidal volume, 35 mL/kg (high tidal volume group). During mechanical ventilation, mice were maintained in deep anesthesia by injecting with ketamine (100 mg/kg) every 45 minutes for the duration of the 4 h study. Mice in the non-ventilated control group were allowed to spontaneously breathe. […] The pellets were then resuspended in 500 μl of PBS and the cell numbers present were determined using an automated cell counter. The BAL fluid was centrifuged again at 15,000× g at 4° C. for 15 min and the supernatant collected and stored at −80° C. until the protein concentration was measured. […]
Protein extracts were prepared using lysis buffer (50 mM Tris-HCl, pH 7.6, 0.5% Triton X-100, 20% glycerol) containing HALT™ protease inhibitor cocktail (Pierce Laboratories, Rockford, IL). […] Bands were quantified using LI-COR Image Station software. […]

The test system of series [1] is PAEC. The experiment in a line: Mitochondrial bioenergetics (XF24 Analyzer, OCR) in PAEC. The format is cell-based, ovine. The conditions noted are these: 4αPDD. How it is done: (§1) Primary cultures of ovine pulmonary arterial endothelial cells (PAEC) were isolated as described previously (L. K. Kelly, Am J Physiol Lung Cell Mol Physiol, 286(5), L984-91 (2004)). Briefly, cells were maintained in Dulbecco's modified Eagle medium (DMEM) supplemented with 10% fetal calf serum (Hyclone, Logan, UT), antibiotics/antimycotic (500 IU Penicillin, 500 μg/ml Streptomycin, 1.25 μg/ml Amphotericin B; MediaTech, Herndon, VA) at 37° C. in a humidified atmosphere with 5% CO2 and 95% air. Cells were used for experiments between passages 9-14, seeded at ˜50% confluence, and utilized when fully confluent.
The XF24 Analyzer (Seahorse Biosciences) and XF CELL MITO STRESS™ Test Kit (#101706-100; Seahorse Biosciences) were used for the mitochondrial bioenergetic analyses. The optimum number of cells/well was determined to be 75,000/0.32 cm^2. At the end of each study, the XF24 culture microplates were incubated in a CO2-free XF prep station at 37° C. for 45 min to allow temperature and pH calibration. Subsequently, each well was sequentially injected Oligomycin (1 μM final concentration), carbonyl cyanide 4-(trifluoromethoxy) phenylhydrazone (FCCP, 1 μM final concentration), and Rotenone+antimycin A (1 μM final concentration of each) and measured the oxygen consumption rate (OCR). These agents were used to determine basal mitochondrial respiration, reserve respiratory capacity and maximal respiratory capacity measurements in pmols/min of oxygen consumed.

The next series deals with PKC. Kind of series: PKC activity, dot-blot of PKC-phosphorylated proteins. The format is cell-based, ovine. The conditions noted are these: PAEC; 4αPDD 10 μM, 2, 4 and 6 hours. The protocol:
as §1
Activation of PKC in control and 4αPDD-treated EC was evaluated using dot-blot method and antibodies specific to PKC-phosphorylated proteins. The cell lysates were transferred on nitrocellulose membrane using Bio-Dot Microfiltration apparatus (Bio-Rad) according to Instruction Manual. To detect and evaluate levels of PKC-phosphorylated proteins, Phospho-(Ser) PKC Substrate rabbit polyclonal antibody (Cell Signaling) was used. After visualization of PKC-phosphorylated proteins, the membrane was stripped and re-probed with β-actin antibody for normalization.

The test system of series [2] is PAEC. The experiment in a line: Cellular peroxynitrite levels (DHR 123 oxidation) in PAEC. It counts as cell-based, ovine. The conditions noted are these: 4αPDD. The protocol: as §1
The level of cell peroxynitrite was determined by the oxidation of dihydrorhodamine (DHR) 123 (EMD Millipore, Billerica, MA) to rhodamine 123, as previously described (S. Aggarwal, J Cell Physiol, 226(12), 3104-13 (2011)). Briefly, cultured PAEC were treated with or without TGF-β1 (5 ng/ml, 8 h) or GW9662 (5 μM, 24 h). The cells were collected and the cell pellet was then treated with PEG-Catalase (100 U, 30 min) to reduce H2O2 dependent DHR 123 oxidation. DHR 123 (5 μM, 30 min) was added to the cell pellet in phenol red-free media and the fluorescence of rhodamine 123 measured using a Fluoroskan Ascent Microplate Fluorometer with excitation at 485 nm and emission at 545 nm. Fluorescent values were normalized to the protein levels in each sample.

The next series has as its system TRPV4. The conditions noted are these: literature (Alvarez, Circ Res 2006); cited from earlier work.

Consider HRKKRRQRRITRKKTFKEVA [d-peptide], for which, in the series with mouse model of VILI, the BALF cell number result is on record as “decreases in the cell number”, the BALF protein levels entry is recorded as “decreases” and the “increase in pT495-eNOS induced by mechanical ventilation of the mouse lung” value is listed as “attenuated the increase in pT495-eNOS induced by mechanical ventilation”.
On to `CCCCCCCCCC(=O)O[C@@H]1[C@@H](C)[C@@]2(O)[C@@H](C=C(CO)C[C@@]3(O)C(=O)C(C)=C[C@@H]23)[C@@H]2C(C)(C)[C@]12OC(=O)CCCCCCCCC` [4αPDD, 4α-Phorbol-12,13 didecanoate], for which, in the series on PAEC [1], the maximum respiratory capacity result is given as “reductions”, the “mitochondrial basal O2 consumption” value is “reductions” and the spare respiratory capacity entry is “reductions”. Besides, the PKC activity entry with PKC is “increases PKC activity”. Also, the cellular peroxynitrite levels entry in the series on PAEC [2] was “increases”. Moreover, the “lung injury on 4αPDD exposure” value in the series on TRPV4 was “leads to Ca^2+ entry-dependent acute lung injury, disruption of the lung barrier, and alveolar flooding”.
